How the values were obtained:
Test in all cases: differential UV-vis titration
TxtE [1] = target: T1, TxtE (Streptomyces scabiei, UniProt C9ZDC6, H176Y); type: binding
T1 sequence (C9ZDC6 1-406 H176Y): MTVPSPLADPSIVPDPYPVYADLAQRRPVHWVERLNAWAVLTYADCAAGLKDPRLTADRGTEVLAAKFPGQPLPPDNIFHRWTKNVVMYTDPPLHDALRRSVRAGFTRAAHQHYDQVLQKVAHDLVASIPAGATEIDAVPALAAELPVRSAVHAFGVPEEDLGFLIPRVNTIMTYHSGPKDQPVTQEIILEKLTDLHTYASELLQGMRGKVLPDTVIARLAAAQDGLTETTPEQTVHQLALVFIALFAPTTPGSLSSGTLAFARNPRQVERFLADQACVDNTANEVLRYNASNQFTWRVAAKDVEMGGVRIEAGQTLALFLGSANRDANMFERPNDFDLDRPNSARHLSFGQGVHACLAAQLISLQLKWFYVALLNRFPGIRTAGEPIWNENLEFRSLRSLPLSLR

Virginiae_TxtE = type: binding, Streptomyces virginiae; conditions: read-out: Kd (μM)^b; 25 mM Tris pH 8
TxtE [2] = target: T2, TxtE (Streptomyces scabiei, UniProt C9ZDC6, H176W); type: binding
T2 sequence (C9ZDC6 1-406 H176W): T1 sequence (C9ZDC6 1-406 H176Y)

TxtE [3] = target: T3, TxtE (Streptomyces scabiei, UniProt C9ZDC6, H176F); type: binding
T3 sequence (C9ZDC6 1-406 H176F): T1 sequence (C9ZDC6 1-406 H176Y)

## N[C@@H](Cc1c[nH]c2ccccc12)C(=O)O [L-tryptophan]
TxtE [1]
  Kd: 4.9 ± 0.3 µM
Virginiae_TxtE
  Kd: 140 ± 6 µM
TxtE [2]
  Kd: 1.3 ± 0.1 µM
TxtE [3]
  Kd: 2.6 ± 0.1 µM

Reference: PMC4843824 (Nature chemistry, 2016)
